# Patent publication US20220185767A1, “NOVEL TERNARY MOLECULAR COMPLEX OF TAMIBAROTENE FOR CANCER STEM CELLS TREATMENT” (TRANSGENEX NANOBIOTECH, INC., priority 2019, published 2022)
# pIC50: −log10 of the molar value. Like-named read-outs stand apart in the source and are kept apart here.
# Experiments:
# A549 = test: Monolayer Cell Culture Assay, IC50; assay type: cell-based; details: A549, Lung
# Description: (§1) All IC50 studies' methodology and materials are described in full details in international publication number WO 2019/160806 dated Aug. 22, 2019, but with substituting the binary molecular complex with the ternary molecular complex of the present invention.
# CT26 = test: Monolayer Cell Culture Assay, IC50; assay type: cell-based; details: Mus musculus, CT26, Colon
# Description: as §1
# HCT116 = test: Monolayer Cell Culture Assay, IC50; assay type: cell-based; details: Homo sapiens, HCT-116, HCT116, Colon
# Description: as §1
# HT29 = test: Monolayer Cell Culture Assay, IC50; assay type: cell-based; details: Homo sapiens, HT-29, HT29, Colon
# Description: as §1
# MC38 = test: Monolayer Cell Culture Assay, IC50; assay type: cell-based; details: Mus musculus, MC-38, MC38, Colon
# Description: as §1
# PANC-1 = test: Monolayer Cell Culture Assay, IC50; assay type: cell-based; details: PANC-1, Pancreas
# Description: as §1
# PC-3 = test: Monolayer Cell Culture Assay, IC50; assay type: cell-based; details: PC-3, Prostate
# Description: as §1
# SK-ES-1 = test: Monolayer Cell Culture Assay, IC50; assay type: cell-based; details: SK-ES-1, Sarcoma
# Description: as §1
# SK-Mel-5 = test: Monolayer Cell Culture Assay, IC50; assay type: cell-based; details: SK-Mel-5, Skin
# Description: as §1
# U-2 OS = test: Monolayer Cell Culture Assay, IC50; assay type: cell-based; details: Sarcoma
# Description: as §1
# [1] = cited from earlier work
# [2] = assay type: physicochemical
# Protocol: 30.0 mg of tamibarotene, 11.4 mg of L-malic acid and 43.5 mg of telmisartan (1:1:1 molar ratio) were stirred as an open slurry in 1 mL of acetone in a glass vial. After 16-24 hours of stirring mixture was further dried at room temperature until, a completely dried mixture is obtained. The resulted material was stored in a screw cap vial and characterized by PXRD and IR. PXRD comparison of binary tamibarotene-L-malic acid complex (TN-513) with tamibarotene-L-malic acid-telmisartan (TN-513-T) also confirmed the successful synthesis of a ternary complex. Synthesis of ternary TN-513-T was scaled up to 150 mg of tamibarotene and stability was tested on accelerated conditions (75% humidity at 40° C.) for 1 and three months.
# lung cancer cells = test: Sphere assay; assay type: cell-based
# Description: All sphere assay studies methodology and materials are described in full details in international publication number WO 2019/160806 dated Aug. 22, 2019, but with substituting the binary molecular complex with the ternary molecular complex of the present invention.
# [3] = Homo sapiens, average of two tests, read-out: IC50 Test AVG Avg
# [4] = average of two tests, read-out: IC50 Test AVG Avg
# [5] = Homo sapiens, read-out: IC50 Test (II) Avg
# [6] = Homo sapiens, read-out: IC50 Test(I) Avg
compound,measurement,setting,value
"CC1(C)CCC(C)(C)c2cc(NC(=O)c3ccc(C(=O)O)cc3)ccc21 [TAM, 4-[(5,5,8,8-tetramethyl-5,6,7,8-tetrahydronaphthalen-2-yl)carbamoyl]benzoic acid, reference compound]",pIC50,A549; [3],4.22
same,pIC50,CT26; [4],4.06
same,pIC50,CT26; read-out: IC50 Test (I) Avg,4.21
same,pIC50,CT26; read-out: IC50 Test (II) Avg,4.02
same,pIC50,HCT116; [4],4.22
same,pIC50,HCT116; read-out: IC50 Test (I) Avg,4.30
same,pIC50,HCT116; read-out: IC50 Test (II) Avg,4.15
same,pIC50,HT29; [4],4.00
same,pIC50,HT29; read-out: IC50 Test (I) Avg,4.05
same,pIC50,HT29; read-out: IC50 Test (II) Avg,3.95
same,pIC50,MC38; [4],3.99
same,pIC50,MC38; read-out: IC50 Test (I) Avg,4.18
same,pIC50,MC38; read-out: IC50 Test (II) Avg,3.86
same,pIC50,PANC-1; [3],< 4.00
same,pIC50,PANC-1; [5],< 4.00
same,pIC50,PANC-1; [6],< 4.00
same,pIC50,PC-3; [3],< 4.00
same,pIC50,PC-3; [5],< 4.00
same,pIC50,PC-3; [6],< 4.00
same,pIC50,"SK-ES-1; Homo sapiens, SK-ES1, average of two tests, read-out: IC50 Test AVG Avg",< 4.00
same,pIC50,"SK-ES-1; Homo sapiens, SK-ES1, read-out: IC50 Test (II) Avg",< 4.00
same,pIC50,"SK-ES-1; Homo sapiens, SK-ES1, read-out: IC50 Test(I) Avg",< 4.00
same,pIC50,SK-Mel-5; [3],< 4.00
same,pIC50,SK-Mel-5; [5],< 4.00
same,pIC50,SK-Mel-5; [6],< 4.00
same,pIC50,"U-2 OS; Homo sapiens, U2OS, average of two tests, read-out: IC50 Test AVG Avg",< 4.00
same,pIC50,"U-2 OS; Homo sapiens, U2OS, read-out: IC50 Test (II) Avg",< 4.00
same,pIC50,"U-2 OS; Homo sapiens, U2OS, read-out: IC50 Test(I) Avg",< 4.00
same,solubility in organic solvents,"[1]; DMF, methanol, ethanol, DMSO, and other organic solvents",soluble
same,"solubility in acetonitrile, water, and various other buffer solutions","[1]; acetonitrile, water, buffer solutions pH3~7 (CN 101200435 B)",insoluble
"CC1(C)CCC(C)(C)c2cc(NC(=O)c3ccc(C(=O)O)cc3)ccc21.CCOc1nc2cccc(C(=O)O)c2n1Cc1ccc(-c2ccccc2-c2nn[nH]n2)cc1 [TN513:CS, Tamibarotene:L-malic acid:candesartan]",pIC50,A549; [4],4.28
same,pIC50,A549; read-out: IC50 Test (II) Avg,4.21
same,pIC50,A549; read-out: IC50 Test(I) Avg,4.37
same,pIC50,PANC-1; [4],4.15
same,pIC50,PANC-1; read-out: IC50 Test (II) Avg,4.06
same,pIC50,PANC-1; read-out: IC50 Test(I) Avg,4.27
same,pIC50,PC-3; [4],3.97
same,pIC50,PC-3; read-out: IC50 Test (II) Avg,3.96
same,pIC50,PC-3; read-out: IC50 Test(I) Avg,3.99
same,pIC50,SK-ES-1; [4],4.50
same,pIC50,SK-ES-1; read-out: IC50 Test (II) Avg,4.47
same,pIC50,SK-ES-1; read-out: IC50 Test(I) Avg,4.54
same,pIC50,SK-Mel-5; [4],4.34
same,pIC50,SK-Mel-5; read-out: IC50 Test (II) Avg,4.37
same,pIC50,SK-Mel-5; read-out: IC50 Test(I) Avg,4.31
same,pIC50,U-2 OS; [4],4.37
same,pIC50,U-2 OS; read-out: IC50 Test (II) Avg,4.34
same,pIC50,U-2 OS; read-out: IC50 Test(I) Avg,4.40
"CC1(C)CCC(C)(C)c2cc(NC(=O)c3ccc(C(=O)O)cc3)ccc21.CCCCc1nc(Cl)c(CO)n1Cc1ccc(-c2ccccc2-c2nn[nH]n2)cc1 [TN513:LS, Tamibarotene:L-malic acid:losartan]",pIC50,A549; [4],3.96
same,pIC50,A549; read-out: IC50 Test (II) Avg,3.90
same,pIC50,A549; read-out: IC50 Test(I) Avg,4.03
same,pIC50,PANC-1; [4],3.90
same,pIC50,PANC-1; read-out: IC50 Test (II) Avg,3.83
same,pIC50,PANC-1; read-out: IC50 Test(I) Avg,3.98
same,pIC50,PC-3; [4],3.48
same,pIC50,PC-3; read-out: IC50 Test (II) Avg,3.47
same,pIC50,PC-3; read-out: IC50 Test(I) Avg,3.49
same,pIC50,SK-ES-1; [4],3.97
same,pIC50,SK-ES-1; read-out: IC50 Test (II) Avg,3.91
same,pIC50,SK-ES-1; read-out: IC50 Test(I) Avg,4.05
same,pIC50,SK-Mel-5; [4],3.94
same,pIC50,SK-Mel-5; read-out: IC50 Test (II) Avg,3.88
same,pIC50,SK-Mel-5; read-out: IC50 Test(I) Avg,4.00
same,pIC50,U-2 OS; [4],4.19
same,pIC50,U-2 OS; read-out: IC50 Test (II) Avg,4.16
same,pIC50,U-2 OS; read-out: IC50 Test(I) Avg,4.22
"CC1(C)CCC(C)(C)c2cc(NC(=O)c3ccc(C(=O)O)cc3)ccc21.CCCc1nc2c(C)cc(-c3nc4ccccc4n3C)cc2n1Cc1ccc(-c2ccccc2C(=O)O)cc1.O=C(O)C[C@H](O)C(=O)O [TN513:TS, Tamibarotene:L-malic acid:telmisartan]",pIC50,A549; [4],4.80
same,pIC50,A549; read-out: IC50 Test (II) Avg,4.70
same,pIC50,A549; read-out: IC50 Test(I) Avg,4.92
same,pIC50,PANC-1; [4],4.49
same,pIC50,PANC-1; read-out: IC50 Test (II) Avg,4.40
same,pIC50,PANC-1; read-out: IC50 Test(I) Avg,4.61
same,pIC50,PC-3; [4],4.15
same,pIC50,PC-3; read-out: IC50 Test (II) Avg,4.15
same,pIC50,PC-3; read-out: IC50 Test(I) Avg,4.14
same,pIC50,SK-ES-1; [4],4.75
same,pIC50,SK-ES-1; read-out: IC50 Test (II) Avg,4.74
same,pIC50,SK-ES-1; read-out: IC50 Test(I) Avg,4.76
same,pIC50,SK-Mel-5; [4],4.68
same,pIC50,SK-Mel-5; read-out: IC50 Test (II) Avg,4.58
same,pIC50,SK-Mel-5; read-out: IC50 Test(I) Avg,4.81
same,pIC50,U-2 OS; [4],4.89
same,pIC50,U-2 OS; read-out: IC50 Test (II) Avg,4.84
same,pIC50,U-2 OS; read-out: IC50 Test(I) Avg,4.95
same,stability on accelerated conditions (PXRD),[2],no change in PXRD data
same,preventing sphere aggregation (sphere formation efficacy),lung cancer cells; FIG. 10,superior efficacy preventing sphere aggregation
same,total surface area of the cancer cell spheres,lung cancer cells; FIG. 11,dramatically reducing the total surface area
